In patent US20240000075A1, “FUNGICIDAL ARYL AMIDINES” (CORTEVA AGRISCIENCE LLC, priority 2020, published 2024):
Where two headings read alike, the source gives them in different places.

Key:
[1] = test system: Puccinia triticina; test: Wheat brown rust, whole-plant fungicidal activity (PUCCRT); type: in vivo, Puccinia triticina on wheat plants (variety 'Yuma'); conditions: 24 h, 1DP (1 day protectant), read-out: % Disease Control Rating PUCCRT
Procedure, shortened: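 Wheat 'Yuma' seedlings at first-leaf stage sprayed to run-off with compound from acetone stock diluted in nine volumes water containing 110 ppm Triton X-100, then inoculated with Puccinia triticina spores. Held overnight in dark dew room at 100% RH, then greenhouse for disease development.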

[2] = test system: Zymoseptoria tritici; test: Septoria leaf blotch of wheat, whole-plant fungicidal activity (SEPTTR); type: in vivo, Zymoseptoria tritici on wheat plants (variety 'Yuma'); conditions: read-out: % Disease Control Rating SEPTTR
Procedure, shortened: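 Compounds in acetone, diluted with nine volumes of water containing 110 ppm Triton X-100, were sprayed to run-off on 'Yuma' wheat seedlings at full first-leaf emergence. Spore inoculation was 3 days before (3DC, curative) or 1 day after (1DP, protectant) treatment, then 3 days at 100% RH and greenhouse. First-leaf disease severity (0–100%) was scored relative to untreated plants as percent control.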

[3] = test system: Phakopsora pachyrhizi; test: Asian soybean rust, whole-plant fungicidal activity (PHAKPA); type: in vivo; conditions: read-out: % Disease Control Rating PHAKPA
Procedure, shortened: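 Ten-day-old 'Williams 82' soybean seedlings sprayed to run-off with compound in acetone/water (1:9, 0.011% Tween-20), air-dried, then inoculated; 24 h dark dew room at 100% RH, then growth room. Disease severity scored 0–100% on sprayed leaves; percent control relative to untreated plants.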

[4] = test system: Rhynchosporium commune; test: Leaf blotch of barley, whole-plant fungicidal activity (RHYNSE); type: in vivo; conditions: 24 h, 1DP (1 day protectant), read-out: % Disease Control Rating RHYNSE
Procedure, shortened: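 Barley cv. 'Harrington' at full first-leaf emergence (7-10 seedlings per pot) was sprayed to run-off with compound in acetone plus nine volumes of water containing 110 ppm Triton X-100, air-dried, then inoculated with spore suspension. Plants spent two days in a dark dew room at 100% RH, then moved to greenhouse for disease development.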

SMILES	pest or weed control at 200 ppm [1]	pest or weed control at 200 ppm ([2]; 24 h, 1DP (1 day protectant))	pest or weed control at 200 ppm ([2]; 72 h, 3DC (3 day curative))	pest or weed control at 200 ppm ([3]; 24 h, 1DP (1 day protectant))	pest or weed control at 200 ppm ([3]; 72 h, 3DC (3 day curative))	pest or weed control at 200 ppm [4]
Cc1cc(C(=O)CC2CCCC2)c(C)cc1/N=C/N(C)C(C)C [Compound 82]	> 85%	> 85%	< 20%	> 85%	> 85%	> 85%
CCN(C)/C=N/c1cc(C)c(C(=O)Cc2ccccc2OC(F)F)cc1C [Compound 83]	> 85%	< 20%	< 20%	> 85%	> 85%	> 85%
CCN(C)/C=N/c1cc(C)c(C(=O)Cc2cccc(OC(F)F)c2)cc1C [Compound 84]	> 85%	< 20%	< 20%	> 85%	> 85%	> 85%
CCN(C)/C=N/c1cc(C)c(C(=O)Cc2ccc(OC(F)F)cc2)cc1C [Compound 85]	> 85%	> 85%	20 to 50%	> 85%	> 85%	> 85%
CCN(C)/C(C)=N/c1cc(C)c(C(=O)Cc2c(F)cc(F)cc2F)cc1C [Compound 86]	> 85%	< 20%	< 20%	> 85%	> 85%	< 20%
CC/C(=N\c1cc(C)c(C(=O)Cc2c(F)cc(F)cc2F)cc1C)N(C)CC [Compound 87]	> 85%	< 20%	< 20%	50 to 85%	20 to 50%	< 20%
Cc1cc(C(=O)Cc2c(F)cc(F)cc2F)c(C)cc1/N=C1\CCCCN1C [Compound 88]	50 to 85%	< 20%	< 20%	50 to 85%	> 85%	< 20%
CCN(C)/C=N/c1cc(C)c(C(=O)Cc2c(F)cc(F)cc2F)cc1OC [Compound 89]	> 85%	< 20%	< 20%	50 to 85%	20 to 50%	20 to 50%
CCN(C)/C(C)=N/c1cc(C)c(C(=O)CC2CCCC2)cc1C [Compound 90]	> 85%	< 20%	< 20%	> 85%	> 85%	20 to 50%
CC/C(=N\c1cc(C)c(C(=O)CC2CCCC2)cc1C)N(C)CC [Compound 91]	> 85%	< 20%	< 20%	> 85%	> 85%	< 20%
Cc1cc(C(=O)CC2CCCC2)c(C)cc1/N=C1\CCCCN1C [Compound 92]	> 85%	< 20%	< 20%	50 to 85%	50 to 85%	20 to 50%
CCN(C)/C(S)=N/c1cc(C)c(C(=O)Cc2c(F)cc(F)cc2F)cc1C [Compound 93]	> 85%	50 to 85%	< 20%	> 85%	> 85%	> 85%
CCN(C)/C(S)=N/c1cc(C)c(C(=O)CC2CCCC2)cc1C [Compound 94]	> 85%	> 85%	< 20%	> 85%	> 85%	> 85%
